Experimental findings from ChEMBL document CHEMBL4396870, “Pharmacological Chaperones for the Treatment of α-Mannosidosis” (J Med Chem, 2019) are described below.

Where a chain is given by its changes, count along the chain named.

In assay [1] the test system is T1, Lysosomal alpha-mannosidase (Homo sapiens), O00754 [C55F].
T1 sequence (whole entry): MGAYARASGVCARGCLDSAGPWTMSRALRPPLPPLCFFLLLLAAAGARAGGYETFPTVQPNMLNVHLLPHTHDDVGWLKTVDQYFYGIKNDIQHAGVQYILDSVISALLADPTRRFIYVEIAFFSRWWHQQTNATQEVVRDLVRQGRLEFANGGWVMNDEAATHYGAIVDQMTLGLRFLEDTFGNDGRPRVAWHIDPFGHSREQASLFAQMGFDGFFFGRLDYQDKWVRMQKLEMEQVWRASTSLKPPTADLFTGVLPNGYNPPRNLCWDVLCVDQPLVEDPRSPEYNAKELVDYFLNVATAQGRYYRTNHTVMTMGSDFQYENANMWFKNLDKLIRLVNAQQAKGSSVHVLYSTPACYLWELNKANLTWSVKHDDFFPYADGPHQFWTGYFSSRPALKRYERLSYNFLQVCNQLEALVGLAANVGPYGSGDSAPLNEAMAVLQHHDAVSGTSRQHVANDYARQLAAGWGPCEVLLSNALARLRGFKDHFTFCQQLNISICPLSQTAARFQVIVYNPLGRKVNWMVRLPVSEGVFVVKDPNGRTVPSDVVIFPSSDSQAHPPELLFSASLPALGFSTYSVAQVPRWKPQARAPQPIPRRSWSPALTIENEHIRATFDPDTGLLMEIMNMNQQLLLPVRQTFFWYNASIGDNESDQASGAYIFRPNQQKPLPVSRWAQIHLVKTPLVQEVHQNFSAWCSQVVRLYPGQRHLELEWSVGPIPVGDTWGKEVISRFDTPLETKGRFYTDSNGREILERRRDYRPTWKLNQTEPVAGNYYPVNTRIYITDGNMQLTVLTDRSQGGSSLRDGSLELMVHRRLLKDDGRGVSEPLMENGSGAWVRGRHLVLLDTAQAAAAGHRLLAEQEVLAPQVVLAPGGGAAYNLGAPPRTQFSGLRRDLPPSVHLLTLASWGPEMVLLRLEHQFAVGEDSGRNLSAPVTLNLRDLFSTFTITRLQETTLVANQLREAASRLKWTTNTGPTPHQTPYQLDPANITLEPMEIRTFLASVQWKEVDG
Put plainly: Chaperone activity at human Lysosomal alpha-mannosidase C55F mutant transfected in human […] knockout HAP1 cells assessed as enzyme activity enhancement at 0.2 uM incubated for 96 hrs relative to control.

Assay [2] deals with T2, Lysosomal alpha-mannosidase (Homo sapiens), O00754 [L565P].
T2 sequence (whole entry): T1 sequence (whole entry) with F55C, L565P
Put plainly: Chaperone activity at human Lysosomal alpha-mannosidase L565P mutant transfected in human […] knockout HAP1 cells assessed as enzyme activity enhancement at 20 uM incubated for 96 hrs relative to control.

Assay [3] has the same test system. Put plainly: Chaperone activity at human Lysosomal alpha-mannosidase L565P mutant transfected in human […] knockout HAP1 cells assessed as enzyme activity enhancement at 2 uM incubated for 96 hrs relative to control.

Take `CC(C)(C)OC(=O)NCCCCCCCCCN[C@@H]1[C@@H](O)[C@@H](O)[C@H](O)[C@H]2COC(=O)N21`: the Activity in assay [1] worked out at 13%; in assay [2], 5%; in assay [3], 14%.

For `COC[C@H]1O[C@@H]2O[C@H]3[C@H](OC)[C@@H](OC)[C@@H](O[C@H]4[C@H](OC)[C@@H](OC)[C@@H](O[C@H]5[C@H](OC)[C@@H](OC)[C@@H](O[C@H]6[C@H](OC)[C@@H](OC)[C@@H](O[C@H]7[C@H](OC)[C@@H](OC)[C@@H](O[C@H]8[C@H](OC)[C@@H](OC)[C@@H](O[C@H]1[C@H](OC)[C@H]2OC)O[C@@H]8COC)O[C@@H]7COC)O[C@@H]6COC)O[C@@H]5COCc1cn(CCCCCCN[C@@H]2[C@@H](O)[C@@H](O)[C@H](O)[C@H]5COC(=O)N52)nn1)O[C@@H]4COC)O[C@@H]3COC`, the Activity came to 23% in assay [1], 0% in assay [2] and 8% in assay [3].
